{"source": "patent US10487313B2", "about": "“Efficient induction of definitive endoderm from pluripotent stem cells” (Novo Nordisk A/S, priority 2011, dated 2019)", "type_in_all_cases": "cell-based, human", "key": {"hES SA121 cells": {"system": "hES SA121 cells", "test": "OCT4 and SOX17 protein ICC quantification during DE induction, DEF culture system", "settings": "CHIR 3 μM D1 then Activin A D2-3, or D'Amour protocol", "protocol": "Human embryonic stem (hES) cells SA121 and […]) were grown on human fibronectin (Sigma) in DEF culture media (Cellartis) with 30 ng/ml bFGF (Invitrogen) and 10 ng/ml Noggin (Peprotech) in 6-96 well plates. Cells were single cell passaged with Rock inhibitor Y-27632 (Calbiochem) and seeded at a density of 40000 cells/cm2 for experiments. Experiments were initiated 4 d after passage. Confluent cultures were washed once in RPMI1640 (Invitrogen) before 24 hour pre-treatment with 0,5-7μM CHIR99021 (Stemgent) in RPMI. Control cells were left untreated in RPMI and D'Amour cells were either left in RPMI or treated with AA (Peprotech)+Wnt3a (R&D Systems) without pre-treatment depending on experimental setup. After 24 hours, pretreated and control cells were washed once with RPMI before adding 100 ng/ml AA in RPMI. D'Amour cells were also treated with 100 ng/ml AA but with 0,2% FBS instead of B27. 24 h later, 2% B27 (Invitrogen) was added to the AA media for 2-3 d. Control cells were treated with B27 to prevent cell death and D'Amour cells with 2% FBS according to published protocol. Media was changed every day. • Day 1: Cells were washed carefully in prewarmed (37° C.) RPMI before starting the differentiation. Day1 medium was premixed (CHIR 3 μM in prewarmed RPMI+PEST) and gently added to cell culture. Volumes were adjusted according to plate formats. • Day 2: Cells were washed carefully in prewarmed (37° C.) RPMI before media change. Day2 medium was premixed (100 ng/ml Activin A in prewarmed RPMI+0.1% PEST) and gently added to cell culture. • Day 3: Day3&4 mediums were premixed (100 ng/ml Activin A and 2% B27 in prewarmed RPMI+0.1% PEST) and gently added to cell culture. • Day 4: DE was harvested or reseeded for further differentiation. Cells were checked under the microscope every day. Cells were washed in PBS+/+ and fixed in 4% formaldehyde for 30 min (10% formaline, VWR). The cells were then washed again three times in PBS and left in PBS (4° C.) until staining. Fixed cells were washed with PBS once, then permeabilized with 0.5% Triton X-100 in PBS for 6 min, washed in PBS and blocked with TNB buffer (0.1 M Tris-HCL pH 7.5, 0.15 M NaCl, 0.5% Blocking Reagent (Perkin Elmer)) for 30 min. Primary antibodies (goat-anti-SOX17 (AF1924, RnD Systems); goat-anti-Brachyury (AF2085, RnD Systems); mouse-anti-OCT4 (sc5279, SantaCruz Biotechnology); goat-anti-PDX1 (AB47383, Abcam)) were added in 0.1% TritonX-100+PBS for 1 h in RT or 4° C. O/N. After a thorough washing step in PBS, secondary antibodies were added together with DAPI in 0.1% Triton X-100+PBS for 45 min at RT, washed thoroughly in PBS and left in PBS until photodocumentation."}, "[1]": {"system": "hES cells (SA121) in mTeSR culture system", "test": "Immunostainings and OCT4/SOX17+ cell quantification in the mTeSR system", "settings": "Chir 7 μM or D'Amour", "protocol": "hES cells (SA121) were cluster passaged from feeders (MEFs) to Matrigel (BD Biosciences) in mTeSR1 media ([…]) and passaged further with Dispase (BD Biosciences) according to the culture system protocol. DE was initiated once clusters started to touch each other Confluent cultures were washed once in RPMI1640 (Invitrogen) before 24 hour pre-treatment with 0,5-7μM CHIR99021 (Stemgent) in RPMI. Control cells were left untreated in RPMI and D'Amour cells were either left in RPMI or treated with AA (Peprotech)+Wnt3a (R&D Systems) without pre-treatment depending on experimental setup. After 24 hours, pretreated and control cells were washed once with RPMI before adding 100 ng/ml AA in RPMI. D'Amour cells were also treated with 100 ng/ml AA but with 0,2% FBS instead of B27. 24 h later, 2% B27 (Invitrogen) was added to the AA media for 2-3 d. Control cells were treated with B27 to prevent cell death and D'Amour cells with 2% FBS according to published protocol. Media was changed every day. Cells were washed in PBS+/+ and fixed in 4% formaldehyde for 30 min (10% formaline, VWR). The cells were then washed again three times in PBS and left in PBS (4° C.) until staining. Fixed cells were washed with PBS once, then permeabilized with 0.5% Triton X-100 in PBS for 6 min, washed in PBS and blocked with TNB buffer (0.1 M Tris-HCL pH 7.5, 0.15 M NaCl, 0.5% Blocking Reagent (Perkin Elmer)) for 30 min. Primary antibodies (goat-anti-SOX17 (AF1924, RnD Systems); goat-anti-Brachyury (AF2085, RnD Systems); mouse-anti-OCT4 (sc5279, SantaCruz Biotechnology); goat-anti-PDX1 (AB47383, Abcam)) were added in 0.1% TritonX-100+PBS for 1 h in RT or 4° C. O/N. After a thorough washing step in PBS, secondary antibodies were added together with DAPI in 0.1% Triton X-100+PBS for 45 min at RT, washed thoroughly in PBS and left in PBS until photodocumentation."}, "SA121 and chIPS cells": {"system": "SA121 and chIPS cells", "test": "CHIR dose dependency: cell survival after titration and AA treatment", "settings": "then 2 d AA", "protocol": "Brachyury expression was analysed after 24 h treatment in SA121 (FIG. 7A) and chIPS cells (FIG. 7C). SOX17 expression was analysed D3 in SA121 (FIG. 7B) and chIPS cells (FIG. 7D)).\nConfluent cultures were washed once in RPMI1640 (Invitrogen) before 24 hour pre-treatment with 0,5-7μM CHIR99021 (Stemgent) in RPMI. Control cells were left untreated in RPMI and D'Amour cells were either left in RPMI or treated with AA (Peprotech)+Wnt3a (R&D Systems) without pre-treatment depending on experimental setup.\nChir was titrated at concentrations between 1-7 uM and analyzed after 24 h Chir treatment (D1) and after 2 d of following AA treatment (D3)."}}}
{"smiles": "Cc1c[nH]c(-c2cnc(NCCNc3ccc(C#N)cn3)nc2-c2ccc(Cl)cc2Cl)n1", "note": "[CHIR, CHIR99021]", "values": [{"measurement": "OCT4 ICC % positive cells", "setting": "hES SA121 cells; SA121, D1", "result": 97.7, "unit": "%"}, {"measurement": "SOX17 ICC % positive cells", "setting": "hES SA121 cells; SA121, D1", "result": 0, "unit": "%"}, {"measurement": "OCT4 ICC % positive cells", "setting": "hES SA121 cells; SA121, D2", "result": 2.4, "unit": "%"}, {"measurement": "SOX17 ICC % positive cells", "setting": "hES SA121 cells; SA121, D2", "result": 72.1, "unit": "%"}, {"measurement": "OCT4 ICC % positive cells", "setting": "hES SA121 cells; SA121, D3", "result": 0.2, "unit": "%"}, {"measurement": "SOX17 ICC % positive cells", "setting": "hES SA121 cells; SA121, D3", "result": 93.1, "unit": "%"}, {"measurement": "Oct4+ cell quantification", "setting": "[1]; D3, Exp ME16b", "result": 6.97}, {"measurement": "Sox17+ cell quantification", "setting": "[1]; D3, Exp ME16b", "result": 62.62}, {"measurement": "Oct4+ cell quantification", "setting": "[1]; D3, Exp ME18b", "result": 2.53}, {"measurement": "Sox17+ cell quantification", "setting": "[1]; D3, Exp ME18b", "result": 82.87}, {"measurement": "Oct4+ cell quantification", "setting": "[1]; D3, Exp ME21a", "result": 0.95}, {"measurement": "Sox17+ cell quantification", "setting": "[1]; D3, Exp ME21a", "result": 91.36}, {"measurement": "Oct4+ cell quantification", "setting": "[1]; D3, Mean of three experiments", "result": 3.5}, {"measurement": "Sox17+ cell quantification", "setting": "[1]; D3, Mean of three experiments", "result": 79.0}, {"measurement": "cell survival D3", "setting": "SA121 and chIPS cells; CHIR 7 uM 24 h", "result": "did not survive d3"}, {"measurement": "cell survival D3", "setting": "SA121 and chIPS cells; CHIR 0.5-1 uM 24 h", "result": "did not survive d3"}]}
